The results in this text go back to ChEMBL document CHEMBL2074324, “Multidrug resistance P-glycoprotein hampers the access of cortisol but not of corticosterone to mouse and human brain” (Endocrinology, 2001).

The target of this data set is ATP-dependent translocase ABCB1 (Mus musculus, UniProt P21447). In words: TP_TRANSPORTER: increase in brain concentration in mdr1a(-/-) mouse. As to conditions: in vivo. It counts as functional, organism-based.
Sequence of ATP-dependent translocase ABCB1 (P21447 whole entry): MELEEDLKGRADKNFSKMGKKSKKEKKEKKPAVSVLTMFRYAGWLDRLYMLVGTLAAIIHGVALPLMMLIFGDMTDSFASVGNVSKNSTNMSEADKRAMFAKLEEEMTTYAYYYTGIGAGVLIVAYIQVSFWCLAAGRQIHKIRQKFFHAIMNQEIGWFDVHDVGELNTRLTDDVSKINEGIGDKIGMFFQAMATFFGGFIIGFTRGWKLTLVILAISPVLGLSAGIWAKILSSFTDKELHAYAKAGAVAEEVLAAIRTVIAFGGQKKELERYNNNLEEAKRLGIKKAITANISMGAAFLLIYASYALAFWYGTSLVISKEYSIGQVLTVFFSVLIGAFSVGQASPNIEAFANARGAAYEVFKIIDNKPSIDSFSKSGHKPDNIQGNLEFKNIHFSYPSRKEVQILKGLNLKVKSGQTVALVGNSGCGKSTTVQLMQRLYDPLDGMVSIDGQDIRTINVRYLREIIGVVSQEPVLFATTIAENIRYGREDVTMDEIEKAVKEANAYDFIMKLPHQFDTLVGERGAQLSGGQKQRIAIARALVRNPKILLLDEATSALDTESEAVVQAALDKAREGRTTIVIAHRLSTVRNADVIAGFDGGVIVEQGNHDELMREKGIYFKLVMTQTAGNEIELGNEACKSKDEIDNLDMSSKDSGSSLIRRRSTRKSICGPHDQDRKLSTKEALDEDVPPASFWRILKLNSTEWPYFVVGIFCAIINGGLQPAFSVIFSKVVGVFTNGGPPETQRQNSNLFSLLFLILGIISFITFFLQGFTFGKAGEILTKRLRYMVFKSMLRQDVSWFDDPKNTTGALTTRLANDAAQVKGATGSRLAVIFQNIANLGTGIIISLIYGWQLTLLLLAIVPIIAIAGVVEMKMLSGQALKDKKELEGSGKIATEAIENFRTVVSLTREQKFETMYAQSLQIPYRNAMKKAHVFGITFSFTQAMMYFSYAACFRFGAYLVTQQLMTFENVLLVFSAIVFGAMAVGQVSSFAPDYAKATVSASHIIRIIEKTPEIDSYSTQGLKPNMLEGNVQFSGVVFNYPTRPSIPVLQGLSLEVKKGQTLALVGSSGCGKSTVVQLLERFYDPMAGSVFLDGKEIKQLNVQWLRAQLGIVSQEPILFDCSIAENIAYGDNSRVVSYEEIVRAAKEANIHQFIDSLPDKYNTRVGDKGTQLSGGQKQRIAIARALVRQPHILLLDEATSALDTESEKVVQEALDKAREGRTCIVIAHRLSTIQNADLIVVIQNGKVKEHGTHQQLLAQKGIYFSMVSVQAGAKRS

On to `C[C@]12CCC(=O)C=C1CC[C@@H]1[C@@H]2[C@@H](O)C[C@@]2(C)[C@H]1CC[C@]2(O)C(=O)CO` [HYDROCORTISONE], for which the Activity entry is “substrate [+]”.
